Measured values taken from publication PMC12454493, “Insight on novel sulfamoylphenyl pyrazole derivatives as anticancer carbonic anhydrase inhibitors” (Molecular Diversity, 2024).

What was measured:
Assay type in all cases: cell-based
[1] = tested on: SNB-75; experiment: NCI-60 one-dose SRB screen (CNS Cancer); settings: Homo sapiens, single dose 10 µM, 48 h, read-out: Growth inhibition percent (GI %)
[2] = tested on: SF-539; experiment: NCI-60 one-dose SRB screen (CNS Cancer); settings: Homo sapiens, single dose 10 µM, 48 h, read-out: Growth inhibition percent (GI %)
[3] = tested on: SF-295; experiment: NCI-60 one-dose SRB screen (CNS Cancer); settings: Homo sapiens, single dose 10 µM, 48 h, read-out: Growth inhibition percent (GI %)
[4] = tested on: SNB-19; experiment: NCI-60 one-dose SRB screen (CNS Cancer); settings: Homo sapiens, single dose 10 µM, 48 h, read-out: Growth inhibition percent (GI %)
[5] = tested on: U251; experiment: NCI-60 one-dose SRB screen (CNS Cancer); settings: Homo sapiens, U-251, single dose 10 µM, 48 h, read-out: Growth inhibition percent (GI %)
[6] = tested on: SF-268; experiment: NCI-60 one-dose SRB screen (CNS Cancer); settings: Homo sapiens, single dose 10 µM, 48 h, read-out: Growth inhibition percent (GI %)
[7] = tested on: KM12; experiment: NCI-60 one-dose SRB screen (Colon Cancer); settings: Homo sapiens, single dose 10 µM, 48 h, read-out: Growth inhibition percent (GI %)
[8] = tested on: COLO 205; experiment: NCI-60 one-dose SRB screen (Colon Cancer); settings: Homo sapiens, single dose 10 µM, 48 h, read-out: Growth inhibition percent (GI %)
[9] = tested on: HCC-2998; experiment: NCI-60 one-dose SRB screen (Colon Cancer); settings: Homo sapiens, single dose 10 µM, 48 h, read-out: Growth inhibition percent (GI %)
[10] = tested on: HCT-15; experiment: NCI-60 one-dose SRB screen (Colon Cancer); settings: Homo sapiens, single dose 10 µM, 48 h, read-out: Growth inhibition percent (GI %)
[11] = tested on: HT29; experiment: NCI-60 one-dose SRB screen (Colon Cancer); settings: Homo sapiens, HT-29, single dose 10 µM, 48 h, read-out: Growth inhibition percent (GI %)
[12] = tested on: HCT-116; experiment: NCI-60 one-dose SRB screen (Colon Cancer); settings: Homo sapiens, single dose 10 µM, 48 h, read-out: Growth inhibition percent (GI %)
[13] = tested on: SW-620; experiment: NCI-60 one-dose SRB screen (Colon Cancer); settings: Homo sapiens, single dose 10 µM, 48 h, read-out: Growth inhibition percent (GI %)
[14] = tested on: SK-MEL-28; experiment: NCI-60 one-dose SRB screen (Melanoma); settings: Homo sapiens, single dose 10 µM, 48 h, read-out: Growth inhibition percent (GI %)
[15] = tested on: MDA-MB-435; experiment: NCI-60 one-dose SRB screen (Melanoma); settings: Homo sapiens, single dose 10 µM, 48 h, read-out: Growth inhibition percent (GI %)
[16] = tested on: UACC-257; experiment: NCI-60 one-dose SRB screen (Melanoma); settings: Homo sapiens, single dose 10 µM, 48 h, read-out: Growth inhibition percent (GI %)
[17] = tested on: M14; experiment: NCI-60 one-dose SRB screen (Melanoma); settings: Homo sapiens, single dose 10 µM, 48 h, read-out: Growth inhibition percent (GI %)
[18] = tested on: UACC-62; experiment: NCI-60 one-dose SRB screen (Melanoma); settings: Homo sapiens, single dose 10 µM, 48 h, read-out: Growth inhibition percent (GI %)
[19] = tested on: LOX IMVI; experiment: NCI-60 one-dose SRB screen (Melanoma); settings: Homo sapiens, single dose 10 µM, 48 h, read-out: Growth inhibition percent (GI %)
[20] = tested on: SK-MEL-5; experiment: NCI-60 one-dose SRB screen (Melanoma); settings: Homo sapiens, single dose 10 µM, 48 h, read-out: Growth inhibition percent (GI %)
[21] = tested on: SK-MEL-2; experiment: NCI-60 one-dose SRB screen (Melanoma); settings: Homo sapiens, single dose 10 µM, 48 h, read-out: Growth inhibition percent (GI %)
[22] = tested on: MALME-3M; experiment: NCI-60 one-dose SRB screen (Melanoma); settings: Homo sapiens, single dose 10 µM, 48 h, read-out: Growth inhibition percent (GI %)
[23] = tested on: CCRF-CEM; experiment: NCI-60 one-dose SRB screen (Leukemia); settings: Homo sapiens, single dose 10 µM, 48 h, read-out: Growth inhibition percent (GI %)
[24] = tested on: A549/ATCC; experiment: NCI-60 one-dose SRB screen (Non-Small Cell Lung Cancer); settings: Homo sapiens, single dose 10 µM, 48 h, read-out: Growth inhibition percent (GI %)
[25] = tested on: NCI-H23; experiment: as above; settings: Homo sapiens, single dose 10 µM, 48 h, read-out: Growth inhibition percent (GI %)
[26] = tested on: NCI-H226; experiment: as above; settings: Homo sapiens, single dose 10 µM, 48 h, read-out: Growth inhibition percent (GI %)
[27] = tested on: HOP-62; experiment: as above; settings: Homo sapiens, single dose 10 µM, 48 h, read-out: Growth inhibition percent (GI %)
[28] = tested on: EKVX; experiment: as above; settings: Homo sapiens, single dose 10 µM, 48 h, read-out: Growth inhibition percent (GI %)
[29] = tested on: NCI-H322M; experiment: as above; settings: Homo sapiens, single dose 10 µM, 48 h, read-out: Growth inhibition percent (GI %)
[30] = tested on: HOP-92; experiment: as above; settings: Homo sapiens, single dose 10 µM, 48 h, read-out: Growth inhibition percent (GI %)
[31] = tested on: NCI-H460; experiment: as above; settings: Homo sapiens, single dose 10 µM, 48 h, read-out: Growth inhibition percent (GI %)
[32] = tested on: NCI-H522; experiment: as above; settings: Homo sapiens, single dose 10 µM, 48 h, read-out: Growth inhibition percent (GI %)
[33] = tested on: HS 578T; experiment: NCI-60 one-dose SRB screen (Breast Cancer); settings: Homo sapiens, single dose 10 µM, 48 h, read-out: Growth inhibition percent (GI %)
[34] = tested on: MDA-MB-468; experiment: NCI-60 one-dose SRB screen (Breast Cancer); settings: Homo sapiens, single dose 10 µM, 48 h, read-out: Growth inhibition percent (GI %)
[35] = tested on: MCF-7; experiment: NCI-60 one-dose SRB screen (Breast Cancer); settings: Homo sapiens, MCF7, single dose 10 µM, 48 h, read-out: Growth inhibition percent (GI %)
[36] = tested on: BT-549; experiment: NCI-60 one-dose SRB screen (Breast Cancer); settings: Homo sapiens, single dose 10 µM, 48 h, read-out: Growth inhibition percent (GI %)
[37] = tested on: T-47D; experiment: NCI-60 one-dose SRB screen (Breast Cancer); settings: Homo sapiens, T47D, single dose 10 µM, 48 h, read-out: Growth inhibition percent (GI %)
[38] = tested on: MDA-MB-231/ATCC; experiment: NCI-60 one-dose SRB screen (Breast Cancer); settings: Homo sapiens, single dose 10 µM, 48 h, read-out: Growth inhibition percent (GI %)
[39] = tested on: SN12C; experiment: NCI-60 one-dose SRB screen (Renal Cancer); settings: Homo sapiens, single dose 10 µM, 48 h, read-out: Growth inhibition percent (GI %)
[40] = tested on: 786-0; experiment: NCI-60 one-dose SRB screen (Renal Cancer); settings: Homo sapiens, single dose 10 µM, 48 h, read-out: Growth inhibition percent (GI %)
[41] = tested on: UO-31; experiment: NCI-60 one-dose SRB screen (Renal Cancer); settings: Homo sapiens, single dose 10 µM, 48 h, read-out: Growth inhibition percent (GI %)
[42] = tested on: CAKI-1; experiment: NCI-60 one-dose SRB screen (Renal Cancer); settings: Homo sapiens, single dose 10 µM, 48 h, read-out: Growth inhibition percent (GI %)
[43] = tested on: RXF 393; experiment: NCI-60 one-dose SRB screen (Renal Cancer); settings: Homo sapiens, single dose 10 µM, 48 h, read-out: Growth inhibition percent (GI %)
[44] = tested on: A498; experiment: NCI-60 one-dose SRB screen (Renal Cancer); settings: Homo sapiens, single dose 10 µM, 48 h, read-out: Growth inhibition percent (GI %)
[45] = tested on: TK-10; experiment: NCI-60 one-dose SRB screen (Renal Cancer); settings: Homo sapiens, single dose 10 µM, 48 h, read-out: Growth inhibition percent (GI %)
[46] = tested on: ACHN; experiment: NCI-60 one-dose SRB screen (Renal Cancer); settings: Homo sapiens, single dose 10 µM, 48 h, read-out: Growth inhibition percent (GI %)

`CCOC(=O)c1ccc(NC(=O)COC(=O)c2cn(-c3ccc(S(N)(=O)=O)cc3)nc2-c2ccc(C)cc2)cc1` [Compound 5b, 2-[(4-(Ethoxycarbonyl)phenyl)amino]-2-oxoethyl 1-(4-sulfamoylphenyl)-3-(p-tolyl)-1H-pyrazole-4-carboxylate] was tested, and the inhibition at 10 µM [1] was 62.9%, the inhibition at 10 µM [2] was 60.9% and the inhibition at 10 µM [3] was 54.8%. For the same molecule, the inhibition at 10 µM [4] was 48.4%, the inhibition at 10 µM [5] was 54.1% and the inhibition at 10 µM [6] was 55.4%. It also gave an inhibition at 10 µM [7] of 70.3%, an inhibition at 10 µM [8] of 42.3% and an inhibition at 10 µM [9] of 47%. The inhibition at 10 µM [10] was 65.7%, the inhibition at 10 µM [11] was 64.4% and the inhibition at 10 µM [12] was 60.7%. For the same molecule, the inhibition at 10 µM [13] was 37%, the inhibition at 10 µM [14] was 48.2% and the inhibition at 10 µM [15] was 47.3%. It also gave an inhibition at 10 µM [16] of 39.1%, an inhibition at 10 µM [17] of 56.9% and an inhibition at 10 µM [18] of 53.4%. It also gave an inhibition at 10 µM [19] of 53.6%, an inhibition at 10 µM [20] of 39.3% and an inhibition at 10 µM [21] of 27.9%. For the same molecule, the inhibition at 10 µM [22] was 35.5%, the inhibition at 10 µM [23] was 75.4% and the inhibition at 10 µM [24] was 51.1%. For the same molecule, the inhibition at 10 µM [25] was 40.3%, the inhibition at 10 µM [26] was 43% and the inhibition at 10 µM [27] was < 5%. It also gave an inhibition at 10 µM [28] of 55.6%, an inhibition at 10 µM [29] of 23.7% and an inhibition at 10 µM [30] of 56.3%. It also gave an inhibition at 10 µM [31] of 60.8%, an inhibition at 10 µM [32] of 49% and an inhibition at 10 µM [33] of 57.9%. It also gave an inhibition at 10 µM [34] of 52.5%, an inhibition at 10 µM [35] of 78.6% and an inhibition at 10 µM [36] of 39.7%. For the same molecule, the inhibition at 10 µM [37] was 53.5%, the inhibition at 10 µM [38] was 27.8% and the inhibition at 10 µM [39] was 38.2%. The inhibition at 10 µM [40] was 66%, the inhibition at 10 µM [41] was 58.8% and the inhibition at 10 µM [42] was 70.2%. The inhibition at 10 µM [43] was 73.2%, the inhibition at 10 µM [44] was 31.7% and the inhibition at 10 µM [45] was 14%. It also gave an inhibition at 10 µM [46] of 52.8%.
